This is an account of results in PubChem BioAssay (NCI).

Common to all, as to test: NCI-60 cell line screen, 48 h
Assay [1] relates to OVCAR-3 ovarian.
Assay [2] relates to RXF 393 renal.
The test system of assay [3] is RPMI-8226 leukemia.
Assay [4] has as its system MDA-N.
In assay [5] the test system is BT-549 breast.
In assay [6] the test system is TK-10 renal.
Assay [7] relates to SK-OV-3 ovarian.
Assay [8] concerns MDA-MB-435.
Assay [9] has as its system SF-539 CNS.
Assay [10] has as its system MALME-3M melanoma.
For assay [11], the system named is CAKI-1 renal.
In assay [12] the test system is OVCAR-4 ovarian.
In assay [13] the test system is NCI-H23 lung.
Assay [14] concerns SW-620 colon.
Assay [15] concerns SK-MEL-2 melanoma.
Assay [16] deals with NCI/ADR-RES ovarian.

The structures appear in SMILES notation.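 In this assay, cells in 96-well plates receive the compound at five concentrations for 48 hours. Endpoints are linearly interpolated between the surrounding concentrations. TGI is the concentration that stops growth completely.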

Regarding `ClC1=C(Cc2ccccc2)Cc2ccc3c(c21)CCC3`, the TGI was 87.2 µM in assay [1]; 45 µM in [2]; 65.3 µM in [3]; over 100 µM in [4]; 67.5 µM in assay [5]; over 100 µM in [6]. In addition, the TGI in assay [7] is over 100 µM; in assay [8], 75.6 µM; in assay [9] it was over 100 µM; in [10], 59.7 µM; in assay [11], 69.7 µM; in assay [12], over 100 µM. Moreover, the TGI in assay [13] and in assay [14] was over 100 µM throughout.

Regarding `Cc1ccc(S(=O)(=O)OC2C(C3COC(C)(C)O3)OC3OC(C)(C)OC32)cc1` (centres undefined), the TGI in [1], in [2], in assay [4], in [5], in [15] and in assay [6] was over 100 µM throughout. In addition, the TGI in assay [8], in [16], in assay [10], in [11], in assay [12] and in assay [13] was over 100 µM each time. Also, the TGI in [14] was over 100 µM.

Take `Cn1c(-c2ccc(/C=N\N3CCN(/N=C/c4ccc(-c5c[n+]6ccsc6n5C)cc4)CC3)cc2)c[n+]2ccsc12`: the TGI was over 100 µM in [1]; over 100 µM in assay [2]; 89.4 µM in [3]; over 100 µM in assay [4]; 90.3 µM in [5]; over 100 µM in assay [15]. Moreover, the TGI in assay [6], in assay [7], in assay [8], in [16], in assay [9] and in assay [11] was over 100 µM in each case. The TGI in assay [12], in assay [13] and in assay [14] was over 100 µM in each case.

`CCOC(=O)c1[nH]c2ccccc2c1C(=O)C[C@H](NC(=O)C(F)(F)F)C(=O)OC`: the TGI in assay [1], in assay [3], in assay [4], in assay [5], in assay [15] and in assay [6] was over 100 µM each time. The TGI in assay [8], in [16], in assay [9], in assay [10], in assay [11] and in assay [12] was over 100 µM throughout. Moreover, the TGI in assay [13] and in assay [14] was over 100 µM throughout.

Consider `COc1ccc(O)c(C=NCCCN=Cc2cc(OC)ccc2O)c1`, for which the TGI is 37.3 µM in assay [1]; 95.2 µM in assay [2]; 74.7 µM in assay [3]; over 100 µM in assay [4]; over 100 µM in assay [5]; over 100 µM in assay [15]. In addition, the TGI in [6] was over 100 µM; in [8], 86.4 µM; in assay [10], 62.7 µM; in assay [12] it was over 100 µM; in [13], over 100 µM; in assay [14], over 100 µM.

`COc1ccc2[nH]c3c(c2c1)COc1ccccc1C3=O`: the TGI in assay [1], in assay [3], in assay [4], in assay [5], in [15] and in assay [6] was over 100 µM each time. Also, the TGI in assay [7], in assay [8], in [16], in assay [9], in [10] and in [11] was over 100 µM throughout. The TGI in assay [12], in assay [13] and in [14] was over 100 µM in each case.

`O=C(O)c1ccc(C(c2c(O)c3ccccc3oc2=O)c2c(O)c3ccccc3oc2=O)cc1`: the TGI in assay [1], in assay [2], in assay [3], in assay [4], in assay [5] and in assay [15] was over 100 µM throughout. Also, the TGI in assay [7], in [8], in [16], in [9], in assay [11] and in assay [13] was over 100 µM each time. The compound further yielded a TGI in [14] of over 100 µM.

As to `O=C(O)CC/C(=N\Nc1nsc2ccccc12)c1ccc(Cl)cc1`, the TGI in assay [1] is 47.2 µM; in assay [2], over 53.7 µM; in [3], 45.9 µM; in assay [4], over 100 µM; in assay [5] it was 74.3 µM; in assay [15], over 100 µM. Also, the TGI in assay [6] was over 67.6 µM; in [7], 89.6 µM; in [8] it was 75.3 µM; in [9], over 89.8 µM; in assay [10] it was over 100 µM; in [11], 52.2 µM. Moreover, the TGI in assay [12] is over 80.2 µM; in assay [13], 59.2 µM; in assay [14], over 87.8 µM.

Regarding `CCOP(=O)(OCC)/C(C#N)=C/c1cccn1CC(C)C`, the TGI in assay [1], in [2], in [4], in [5], in assay [15] and in assay [6] was over 100 µM throughout. For the same compound, the TGI in assay [7], in assay [8], in assay [16], in [9], in assay [10] and in assay [11] was over 100 µM throughout. Besides, the TGI in [13] and in [14] was over 100 µM in each case.

As to `O=C(NCCO)Nc1c(C(F)(F)F)cc(-c2ccccc2)[nH]c1=O`, the TGI in assay [1], in assay [2], in assay [3], in assay [4], in assay [5] and in assay [15] was over 100 µM each time. For the same compound, the TGI in [6], in [7], in assay [8], in assay [16], in [11] and in assay [12] was over 100 µM in each case. Besides, the TGI in assay [13] and in assay [14] was over 100 µM in each case.
